Results reported in patent US9980943B2, “Methods of treating muscular dystrophy” (BOARD OF REGENTS OF THE NEVADA SYSTEM OF HIGHER EDUCATION, …, priority 2013, dated 2018).

Columns and labels:
[1] = test system: β-galactosidase in CMV-LacZ C2C12 myoblasts; experiment: CMV-LacZ secondary screen in C2C12 myoblasts (β-Gal stabilizing assay); format: cell-based, mouse; details: for CMV-LACZ in Myoblasts, value relative to DMSO: SU9516 analogs, C2C12 CMV-LacZ, N=2
Procedure, shortened: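 β-Gal level was the read-out, measured in a clonal C2C12 line expressing LacZ from a CMV promoter. Dose-response curves used six concentrations, 0.5 μM up to 40 μM, with duplicate points.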

[2] = test system: α7 integrin (LacZ reporter in α7+/LacZ myotubes); experiment: Myotube α7 integrin FDG assay (Burkin assay in myotubes, 96-well); format: cell-based, mouse; details: for Burkin Assay in Myotubes, value relative to DMSO: SU9516 analogs, 96-well, N=3-6
[3] = test system: β-galactosidase in CMV-LacZ C2C12 myotubes; experiment: CMV-LacZ secondary screen in C2C12 myotubes (β-Gal stabilizing assay); format: cell-based, mouse; details: for CMV-LACZ in Myotubes, value relative to DMSO: SU9516 analogs, C2C12 CMV-LacZ, N=2
Procedure, shortened: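 Dose-response runs at 0.5–40 μM (0.5, 1, 5, 10, 20, 40 μM; N=2 per point) used a clonal C2C12 line carrying CMV-LacZ. Cells were assayed as myoblasts or as differentiated myotubes, and β-galactosidase levels were read with the FDG fluorogenic substrate.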

[4] = test system: α7 integrin (LacZ reporter in α7βgal+/− myoblasts); experiment: Myoblast α7+/LacZ integrin FDG assay (Burkin assay in myoblasts, 96-well); format: cell-based, mouse; details: SU9516 analogs, 96-well, N=3-6
[5] = test system: α7 Integrin protein in C2C12 myotubes; experiment: Western blot of α7 integrin protein in C2C12 myotubes; format: cell-based, mouse; details: 12 μM, 48 hours, α7B Integrin normalized to GAPDH
Protocol: Bands were quantified using Image J software and then graphed as α7 Integrin protein levels relative to GAPDH protein levels. * denotes a significant difference in relative protein levels with ** p<0.01.
C2C12 myotubes were treated for 48 hours with each hit compound, washed with PBS, then scraped and pelleted using standard procedures. Cell pellets were resuspended in RIPA buffer and protein concentration determined by BCA. Approximately 10 μg of protein was loaded per lane and separated on 8% SDS-PAGE gels and transferred to nitrocellulose using standard conditions. Blots were probed using α7A and α7B integrin specific rabbit polyclonal antibody as previously described and […].
Western blot analysis of the myotube protein extracts were then performed for α7B Integrin and normalized to GAPDH (FIGS. 8A and 8B).
Immunoblot analysis is used to assess the protein level expression in treated and control cells. C2C12 and human DMD myoblasts and myotubes are cultured in triplicate experiments and treated with lead compounds or DMSO as described above. Cells are harvested using a cell scraper and extracted proteins. Extracted protein is quantified by a Bradford assay. […] A LiCoR Odyssey scanner and software is used to quantify band intensities and statistical significance (p<0.05) is determined using ANOVA.

[6] = test system: α7 integrin (LacZ reporter in α7LacZ+/− myoblasts); experiment: qHTS of the LOPAC library and MLSMR (online screen, α7LacZ+/− myoblasts); details: LOPAC library

Compound | CMV-LACZ in Myoblasts, value relative to DMSO ([1]; 0.5 uM) | CMV-LACZ in Myoblasts, value relative to DMSO ([1]; 5 uM) | CMV-LACZ in Myoblasts, value relative to DMSO ([1]; 10 uM) | CMV-LACZ in Myoblasts, value relative to DMSO ([1]; 20 uM) | CMV-LACZ in Myoblasts, value relative to DMSO ([1]; 40 uM) | Burkin Assay in Myotubes, value relative to DMSO ([2]; 0.5 uM) | Burkin Assay in Myotubes, value relative to DMSO ([2]; 1 uM) | Burkin Assay in Myotubes, value relative to DMSO ([2]; 5 uM) | Burkin Assay in Myotubes, value relative to DMSO ([2]; 10 uM) | Burkin Assay in Myotubes, value relative to DMSO ([2]; 20 uM) | Burkin Assay in Myotubes, value relative to DMSO ([2]; 40 uM) | CMV-LACZ in Myotubes, value relative to DMSO ([3]; 0.5 uM) | CMV-LACZ in Myotubes, value relative to DMSO ([3]; 1 uM) | CMV-LACZ in Myotubes, value relative to DMSO ([3]; 5 uM) | CMV-LACZ in Myotubes, value relative to DMSO ([3]; 10 uM) | CMV-LACZ in Myotubes, value relative to DMSO ([3]; 20 uM) | CMV-LACZ in Myotubes, value relative to DMSO ([3]; 40 uM) | Burkin Assay in Myoblasts, value relative to DMSO ([4]; 0.5 uM) | Burkin Assay in Myoblasts, value relative to DMSO ([4]; 1 uM) | Burkin Assay in Myoblasts, value relative to DMSO ([4]; 5 uM) | other results
Cc1[nH]c(C=C2C(=O)Nc3ccccc32)c(C)c1CCC(=O)O [NCGC00241113-01] | 1.4142 | 1.1634 | 1.1352 | 2.7827 | 3.3097 | 1.078 | 1.105 | 0.8489 | 0.7678 | 0.7458 | 0.6312 | 0.8627 | 1.3227 | 0.9410 | 1.0724 | 0.9790 | 0.9520 | 1.011 | 1.057 | 0.9062 | Burkin Assay in Myoblasts, value relative to DMSO ([4]; 10 uM): 0.8662; Burkin Assay in Myoblasts, value relative to DMSO ([4]; 20 uM): 0.9594; Burkin Assay in Myoblasts, value relative to DMSO ([4]; 40 uM): 0.9168
Cc1[nH]c(/C=C2\C(=O)Nc3ccc(S(=O)(=O)Cc4c(Cl)cccc4Cl)cc32)c(C)c1C(=O)C1CCCN1CN1CCCC1 (stereo not shown) [NCGC00242500-01] | 1.1021 | 1.6977 | 2.4909 | 0.3570 | 0.4237 | 0.9974 | 0.9391 | 0.9422 | 0.7534 | 0.652 | 0.2132 | 1.2482 | 1.9682 | 2.2432 | 3.3039 | 5.2430 | 7.0800 | 1.052 | 1.076 | 0.8704 | CMV-LACZ in Myoblasts, value relative to DMSO ([1]; 1 uM): 1.1446; Burkin Assay in Myoblasts, value relative to DMSO ([4]; 10 uM): 0.5879; Burkin Assay in Myoblasts, value relative to DMSO ([4]; 20 uM): 0.01841; Burkin Assay in Myoblasts, value relative to DMSO ([4]; 40 uM): 0.01945
COc1ccc2c(c1)/C(=C/c1cnc[nH]1)C(=O)N2 [SU9516, 3-[1-(3H-imidazol-4-yl)-meth-(Z)-ylidene]-5-methoxy-1,3-dihydro-indol-2-one, reference compound] | – | – | – | – | – | – | – | – | – | – | – | – | – | – | – | – | – | – | – | – | increase in α7 Integrin protein levels compared to DMSO treated controls [5]: approximately 1.6 fold; activity in C2C12 CMV-LACZ myoblasts [1]: showed activity; EC50 ([2]; Mus musculus, Myotube, read-out: EC50 α7+/LacZ MT): 6 µM; activity in C2C12 CMV-LACZ myotubes [3]: showed activity; outcome of preliminary LOPAC library screen [6]: hit
